Results as given in US5605911A, “Use of alpha-2 adrenergic drugs to prevent adverse effects of NMDA receptor hypofunction (NRH)” (priority 1995, dated 1997).
Entries after “also recorded” stand apart in the source; their conditions may differ.

system: pyramidal neurons in layers III and IV of the posterior cingulate (PC) and retrosplenial (RS) cortices; experiment: protection by alpha-2 adrenergic agonists against MK-801 neurotoxicity (vacuolated PC/RS neurons) in rats; conditions: Rattus norvegicus, Pyramidal neuron, ip, 4 h
From the text: For each test agent, at least 17 rats were used and at least four doses tested.
The rats were sacrificed four hours after treatment, and brain tissue from the PC/RS region was histopathologically evaluated by previously described methods using double-blinded techniques (Olney et al 1991). The number of vacuolated PC and RS neurons were counted on each side of the brain at a rostrocaudal level immediately posterior to where the corpus callosum ceases decussating across the midline (approximately 5.6 mm caudal to Bregma; Paxinos & Watson, The Rat Brain in Stereotaxic Coordinates, 2d Ed., 1986).

Row | SMILES | ED50 [mg/kg]
1 | N=C(N)N/N=C/c1c(Cl)cccc1Cl [Guanabenz] | 0.21
2 | Clc1cc(I)cc(Cl)c1NC1=NCCN1 [p-Iodoclonidine] | 1.3

same assay, conditions: ranking in words among the four α2 agonists

Row | SMILES | relative potency in preventing the neurotoxic reaction
3 | N=C(N)N/N=C/c1c(Cl)cccc1Cl [Guanabenz] | intermediate
4 | Clc1cc(I)cc(Cl)c1NC1=NCCN1 [p-Iodoclonidine] | intermediate

system: PC/RS cortical neurons; experiment: protection by anti-psychotic drugs against MK-801 (NRH)-induced vacuoles in rats; assay type: in vivo; conditions: Rattus norvegicus, Cortical neurone, ip
Experimental: Control animals received saline or DMSO, but no anti-psychotic drugs. Test animals were injected ip with an antipsychotic drug, listed above and in Table 2. Vacuoles were counted and data were processed as described in Example 1.

Row | SMILES | ED50 [mg/kg]
5 | CN1CCN(C2=Nc3cc(F)ccc3Cc3ccccc32)CC1 [Fluperlapine] | 2.3
6 | Cc1ccccc1NC(=N)Nc1ccccc1C [Di(2-tolyl)guanidine, di(2-tolyl)guanidine] | 22.2
7 | Clc1ccc2c(c1)C(N1CCNCC1)=Nc1ccccc1O2 [Amoxapine] | 75
8 | Cc1cc2c(s1)Nc1ccccc1N=C2N1CCN(C)CC1 [Olanzapine] | 1.4

same assay, conditions: Rattus norvegicus, Cortical neurone, ip; protection against MK-801-induced vacuoles; confidence limits 25th & 75th percentiles in separate column; read-out: ED50

Row | SMILES | ED50 [mg/kg]
9 | CN1CCN(C2=Nc3cc(Cl)ccc3Nc3ccccc32)CC1 [Clozapine] | 3.2

system: α2 receptors; experiment: not given; conditions: in words; cited from earlier work

Row | SMILES | affinity/selectivity for α2 over α1 receptors
10 | Cc1cccc([C@H](C)c2cnc[nH]2)c1C [dexmedetomidine] | activate α2 receptors with higher affinity than they have for α1 receptors; also recorded: substantially more selectivity for α2 receptors than for α1 receptors, when compared to clonidine; also recorded: substantially higher selectivity for α2 receptors (and substantially lower affinity for α1 receptors) than clonidine
11 | CCN1CCc2nc(N)oc2CC1 [azepexole] | activate α2 receptors with higher affinity than they have for α1 receptors; also recorded: substantially more selectivity for α2 receptors than for α1 receptors, when compared to clonidine; also recorded: substantially higher selectivity for α2 receptors (and substantially lower affinity for α1 receptors) than clonidine
12 | C1COC(NC(C2CC2)C2CC2)=N1 [rilmenidine] | activate α2 receptors with higher affinity than they have for α1 receptors
13 | N=C(N)N/N=C/c1c(Cl)cccc1Cl [Guanabenz] | activate α2 receptors with higher affinity than they have for α1 receptors
14 | CC(N)C(O)c1ccc(O)c(O)c1 (stereo not drawn) [alpha-methylnoradrenaline] | activate α2 receptors with higher affinity than they have for α1 receptors
15 | Cc1cccc(C(C)c2cnc[nH]2)c1C (centres unmarked) [medetomidine] | activate α2 receptors with higher affinity than they have for α1 receptors
16 | C[C@](N)(Cc1ccc(O)c(O)c1)C(=O)O [alpha-methyldopa] | activate α2 receptors with higher affinity than they have for α1 receptors
17 | Clc1cc(I)cc(Cl)c1NC1=NCCN1 [p-Iodoclonidine] | activate α2 receptors with higher affinity than they have for α1 receptors
18 | Clc1ccc2nsnc2c1NC1=NCCN1 [tizanidine] | activate α2 receptors with higher affinity than they have for α1 receptors

system: neurotoxic side effects caused by NMDA antagonists such as PCP or MK-801; experiment: not given; conditions: Olney et al 1991, U.S. Pat. No. 5,034,400; cited from earlier work

Row | SMILES | block of neurotoxic side effects caused by NMDA antagonists
19 | C=CCC1(C(C)CCC)C(=O)NC(=O)NC1=O (centres unmarked) [secobarbitol] | can block the neurotoxic side effects caused by NMDA antagonists
20 | OC(CCN1CCCC1)(c1ccccc1)C1CCCCC1 (centres unmarked) [procyclidine] | can block the neurotoxic side effects caused by NMDA antagonists
21 | CN1[C@@H]2CC[C@H]1C[C@@H](OC(c1ccccc1)c1ccccc1)C2 [benztropine] | can block the neurotoxic side effects caused by NMDA antagonists
22 | OC(CCN1CCCCC1)(c1ccccc1)C1CCCCC1 (centres unmarked) [trihexyphenidyl] | can block the neurotoxic side effects caused by NMDA antagonists
23 | OC(CCN1CCCCC1)(c1ccccc1)C1CC2C=CC1C2 (centres unmarked) [biperiden] | can block the neurotoxic side effects caused by NMDA antagonists
